The values that follow come from patent US10906938B2, “Cell epitopes and combination of cell epitopes for use in the immunotherapy of myeloma and other cancers” (Immatics Biotechnologies GmbH, priority 2015, dated 2021).

For one assay, the system named is MM.1S cells. Put plainly: HLA class I ligand presentation upon carfilzomib treatment on MM.1S cells (LC-MS/MS). The assay is classed as cell-based, human. Also noted: key to modulation upon carfilzomib-treatment 24 #1 / modulation upon carfilzomib-treatment 24 #2 / modulation upon carfilzomib-treatment 24 #3 / modulation upon carfilzomib-treatment 48 #1 / modulation upon carfilzomib-treatment 48 #2 / modulation upon carfilzomib-treatment 48 #3: −1: significantly down-modulated; 0: not signifcant/not detected; 1: significantly up-modulated. The conditions noted are these: for modulation upon carfilzomib-treatment 24 #1 / modulation upon carfilzomib-treatment 24 #2 / modulation upon carfilzomib-treatment 24 #3 / modulation upon carfilzomib-treatment 48 #1 / modulation upon carfilzomib-treatment 48 #2 / modulation upon carfilzomib-treatment 48 #3 / modulation of peptide presentation upon carfilzomib treatment: MM.1S cells; for modulation upon carfilzomib-treatment 24 #1 / modulation upon carfilzomib-treatment 24 #2 / modulation upon carfilzomib-treatment 24 #3: 24 h after carfilzomib treatment (100 nM, 1 h); for modulation upon carfilzomib-treatment 24 #1 / modulation upon carfilzomib-treatment 48 #1: biological replicate #1; for modulation upon carfilzomib-treatment 24 #1 / modulation upon carfilzomib-treatment 24 #2 / modulation upon carfilzomib-treatment 24 #3 / modulation upon carfilzomib-treatment 48 #1 / modulation upon carfilzomib-treatment 48 #2 / modulation upon carfilzomib-treatment 48 #3: vs mock-treated controls; for modulation upon carfilzomib-treatment 24 #2 / modulation upon carfilzomib-treatment 48 #2: biological replicate #2; for modulation upon carfilzomib-treatment 24 #3 / modulation upon carfilzomib-treatment 48 #3: biological replicate #3; for modulation upon carfilzomib-treatment 48 #1 / modulation upon carfilzomib-treatment 48 #2 / modulation upon carfilzomib-treatment 48 #3: 48 h after carfilzomib treatment (100 nM, 1 h); for modulation of peptide presentation upon carfilzomib treatment: 24 h after carfilzomib treatment. Here is the method: (§1) HLA class I and II molecules were isolated using standard immunoaffinity purification as described using the pan-HLA class I specific mAb W6/32, the pan-HLA class II specific mAb T039 and the HLA-DR specific mAB L243 (produced in house).
(§2) HLA ligand extracts were analyzed in 5 technical replicates as described previously. In brief, peptide samples were separated by nanoflow HPLC (RSLCnano, ThermoFisher) using a 50 μm×25 cm PepMap RSLC column (Thermo Fisher) and a gradient ranging from 2.4 to 32.0% acetonitrile over the course of 90 min. Eluting peptides were analyzed in an online coupled LTQ Orbitrap XL mass spectrometer (Thermo Fisher) using a top 5 CID (collision induced dissociation) fragmentation method.
(§3) Data processing was performed as described previously. In brief, the Mascot search engine (Mascot 2.2.04; Matrix Science, London, UK) was implemented to search the human proteome as comprised in the Swiss-Prot database (20,279 reviewed protein sequences, September 2013) without enzymatic restriction. Potential mutated HLA ligands were searched implementing a database containing the human proteome concatenated with proteins containing single amino acid variants (SAVs) listed in the COSMIC database (http://cancer.sanger.ac.uk/cosmic/). Only recurrent SAVs described in 2 or more samples of hematological origin were included. Oxidized methionine was allowed as a dynamic modification. The false discovery rate was estimated using the Percolator algorithm and set to 5%. Peptide lengths were limited to 8-12 amino acids for HLA class I and 12-25 amino acids for HLA class II. Protein inference was disabled, allowing for multiple protein annotations of peptides. HLA annotation was performed using SYFPEITHI [46] or an extended in-house database. Experimental validation of peptide identifications and HLA annotations was performed by mass spectrometric and functional characterization of synthetic peptides for a subset of peptides.
(§4) The inventors quantitatively assessed HLA class I ligand presentation during proteasome inhibitor therapy. Observed was a considerable plasticity of the HLA class I ligandome after treatment with carfilzomib with 17.9±1.1% of MM.1S ligands and 11.2±0.7% of U266 ligands (mean of three biological replicates ±s.d.) showing significant modulation (fold-change ≥4, Po0.01 after Benjamini-Hochberg correction) at t24 h compared with mock-treated controls. Briefly, Cultured MCLs (MM.1S and U266) and primary myeloma samples were incubated with carfilzomib (100 nM, Kyprolis®, available, e.g., from Onyx Pharmaceuticals, Inc.) as an example for a proteasome inhibitor for a 1-h period, followed by three washes in PBS (Gibco) and recultured for additional 24 or 48 h. Controls were incubated with vehicle control (glucose 5%) for 1 h, followed by identical washing and incubation for 24 or 48 h. Experiments were conducted in three biological replicates where indicated.

In the next assay the test system is U266 cells. Put plainly: HLA class I ligand presentation upon carfilzomib treatment on U266 cells (LC-MS/MS). The assay is classed as cell-based, human. Also on record: key to modulation upon carfilzomib-treatment 24 #1 / modulation upon carfilzomib-treatment 24 #2 / modulation upon carfilzomib-treatment 24 #3 / modulation upon carfilzomib-treatment 48 #1 / modulation upon carfilzomib-treatment 48 #2 / modulation upon carfilzomib-treatment 48 #3: −1: significantly down-modulated; 0: not signifcant/not detected; 1: significantly up-modulated. As to conditions: for modulation upon carfilzomib-treatment 24 #1 / modulation upon carfilzomib-treatment 24 #2 / modulation upon carfilzomib-treatment 24 #3 / modulation upon carfilzomib-treatment 48 #1 / modulation upon carfilzomib-treatment 48 #2 / modulation upon carfilzomib-treatment 48 #3: U266 cells, vs mock-treated controls; for modulation upon carfilzomib-treatment 24 #1 / modulation upon carfilzomib-treatment 24 #2 / modulation upon carfilzomib-treatment 24 #3: 24 h after carfilzomib treatment (100 nM, 1 h); for modulation upon carfilzomib-treatment 24 #1 / modulation upon carfilzomib-treatment 48 #1: biological replicate #1; for modulation upon carfilzomib-treatment 24 #2 / modulation upon carfilzomib-treatment 48 #2: biological replicate #2; for modulation upon carfilzomib-treatment 24 #3 / modulation upon carfilzomib-treatment 48 #3: biological replicate #3; for modulation upon carfilzomib-treatment 48 #1 / modulation upon carfilzomib-treatment 48 #2 / modulation upon carfilzomib-treatment 48 #3: 48 h after carfilzomib treatment (100 nM, 1 h). Here is the method: as §1, §2, §3, §4

[1] abbreviates: carfilzomib 100 nM for 1 h, t24 h vs mock-treated controls, fold-change ≥4, Po0.01 after Benjamini-Hochberg correction, mean of three biological replicates ±s.d.

As for RPKAQPTTL, in the assay on MM.1S cells, the “modulation upon carfilzomib-treatment 24 #1” value was 0, the “modulation upon carfilzomib-treatment 24 #2” value is 0, the “modulation upon carfilzomib-treatment 24 #3” value was found to be 1 and the “modulation upon carfilzomib-treatment 48 #1” value worked out at 0. Besides, in the assay with MM.1S cells, the “modulation upon carfilzomib-treatment 48 #2” value is given as 0 and the “modulation upon carfilzomib-treatment 48 #3” value amounted to 0. Besides, in the assay with U266 cells, the “modulation upon carfilzomib-treatment 24 #1” value came out at 0, the “modulation upon carfilzomib-treatment 24 #2” value came out at 0, the “modulation upon carfilzomib-treatment 24 #3” value is recorded as 0 and the “modulation upon carfilzomib-treatment 48 #1” value is given as 0. In the assay with U266 cells, the “modulation upon carfilzomib-treatment 48 #2” value is 0 and the “modulation upon carfilzomib-treatment 48 #3” value was determined as 0.
Turning to TPAVGRLEV, in the assay with MM.1S cells, the “modulation upon carfilzomib-treatment 24 #1” value was determined as 0, the “modulation upon carfilzomib-treatment 24 #2” value is 0, the “modulation upon carfilzomib-treatment 24 #3” value is on record as 0 and the “modulation upon carfilzomib-treatment 48 #1” value was found to be 0. In the assay on MM.1S cells, the “modulation upon carfilzomib-treatment 48 #2” value came out at 0 and the “modulation upon carfilzomib-treatment 48 #3” value was found to be 0. Also, in the assay on U266 cells, the “modulation upon carfilzomib-treatment 24 #1” value amounted to 0, the “modulation upon carfilzomib-treatment 24 #2” value came to 0, the “modulation upon carfilzomib-treatment 24 #3” value was found to be 0 and the “modulation upon carfilzomib-treatment 48 #1” value is listed as 0. Moreover, in the assay with U266 cells, the “modulation upon carfilzomib-treatment 48 #2” value was found to be 0 and the “modulation upon carfilzomib-treatment 48 #3” value worked out at 0.
For the compound APRHPSTNSL, in the assay with MM.1S cells, the “modulation upon carfilzomib-treatment 24 #1” value is 0, the “modulation upon carfilzomib-treatment 24 #2” value was 0, the “modulation upon carfilzomib-treatment 24 #3” value amounted to 1 and the “modulation upon carfilzomib-treatment 48 #1” value worked out at 0. Moreover, in the assay on MM.1S cells, the “modulation upon carfilzomib-treatment 48 #2” value is reported as 0 and the “modulation upon carfilzomib-treatment 48 #3” value is given as 0. Further, in the assay with U266 cells, the “modulation upon carfilzomib-treatment 24 #1” value is reported as 0, the “modulation upon carfilzomib-treatment 24 #2” value stood at 1, the “modulation upon carfilzomib-treatment 24 #3” value was 0 and the “modulation upon carfilzomib-treatment 48 #1” value amounted to 1. In the assay on U266 cells, the “modulation upon carfilzomib-treatment 48 #2” value is given as 1 and the “modulation upon carfilzomib-treatment 48 #3” value was 0.
As to “LAFPGEMLL (listed as Homo sapiens) [SEQ ID NO: 107]”, in the assay on MM.1S cells, the “modulation of peptide presentation upon carfilzomib treatment” value is “no significant modulation”.
For the compound NEVIMTIGF, in the assay on MM.1S cells, the “modulation upon carfilzomib-treatment 24 #1” value worked out at 0, the “modulation upon carfilzomib-treatment 24 #2” value came out at 0, the “modulation upon carfilzomib-treatment 24 #3” value was 0 and the “modulation upon carfilzomib-treatment 48 #1” value came to 0. Moreover, in the assay with MM.1S cells, the “modulation upon carfilzomib-treatment 48 #2” value is given as 1 and the “modulation upon carfilzomib-treatment 48 #3” value amounted to 0.
NEFPVFDEF: in the assay with MM.1S cells, the “modulation upon carfilzomib-treatment 24 #1” value turned out to be 0, the “modulation upon carfilzomib-treatment 24 #2” value was determined as 0, the “modulation upon carfilzomib-treatment 24 #3” value turned out to be 0 and the “modulation upon carfilzomib-treatment 48 #1” value is on record as 0. In the assay on MM.1S cells, the “modulation upon carfilzomib-treatment 48 #2” value turned out to be 0 and the “modulation upon carfilzomib-treatment 48 #3” value was 0.
Turning to `CC(C)C[C@H](NC(=O)[C@H](CCc1ccccc1)NC(=O)CN1CCOCC1)C(=O)N[C@@H](Cc1ccccc1)C(=O)N[C@@H](CC(C)C)C(=O)[C@@]1(C)CO1` [carfilzomib, reference compound], in the assay on MM.1S cells (setting [1]), the “MM.1S ligands showing significant modulation” value was determined as 17.9±1.1%. Besides, the “U266 ligands showing significant modulation” value in the assay on U266 cells (setting [1]) is 11.2±0.7%.
Take SYLNSVQRL: in the assay on MM.1S cells, the “modulation upon carfilzomib-treatment 24 #1” value is recorded as 0, the “modulation upon carfilzomib-treatment 24 #2” value is 0, the “modulation upon carfilzomib-treatment 24 #3” value is given as 0 and the “modulation upon carfilzomib-treatment 48 #1” value is reported as 0. For the same compound, in the assay on MM.1S cells, the “modulation upon carfilzomib-treatment 48 #2” value came to 0 and the “modulation upon carfilzomib-treatment 48 #3” value was found to be 0.
For FVFPGELLL, in the assay on MM.1S cells, the “modulation upon carfilzomib-treatment 24 #1” value stood at 0, the “modulation upon carfilzomib-treatment 24 #2” value came to 0, the “modulation upon carfilzomib-treatment 24 #3” value is given as 0 and the “modulation upon carfilzomib-treatment 48 #1” value came out at 0. Besides, in the assay on MM.1S cells, the “modulation upon carfilzomib-treatment 48 #2” value was 0 and the “modulation upon carfilzomib-treatment 48 #3” value worked out at 0. Moreover, in the assay on U266 cells, the “modulation upon carfilzomib-treatment 24 #1” value is recorded as 1, the “modulation upon carfilzomib-treatment 24 #2” value stood at 1, the “modulation upon carfilzomib-treatment 24 #3” value stood at 0 and the “modulation upon carfilzomib-treatment 48 #1” value is given as 0. Further, in the assay on U266 cells, the “modulation upon carfilzomib-treatment 48 #2” value is recorded as 0 and the “modulation upon carfilzomib-treatment 48 #3” value was found to be 0.
In the case of YYLNEIQSF [SEQ ID NO: 228], the “modulation of peptide presentation upon carfilzomib treatment” value in the assay with MM.1S cells is “no significant modulation”.
As to YYLNEIQSF, in the assay with MM.1S cells, the “modulation upon carfilzomib-treatment 24 #1” value turned out to be 0, the “modulation upon carfilzomib-treatment 24 #2” value is 0, the “modulation upon carfilzomib-treatment 24 #3” value was 0 and the “modulation upon carfilzomib-treatment 48 #1” value amounted to 0. Besides, in the assay with MM.1S cells, the “modulation upon carfilzomib-treatment 48 #2” value came to 0 and the “modulation upon carfilzomib-treatment 48 #3” value is 0.
Regarding FAQIISVALI, in the assay with MM.1S cells, the “modulation upon carfilzomib-treatment 24 #1” value came out at 0, the “modulation upon carfilzomib-treatment 24 #2” value amounted to 0, the “modulation upon carfilzomib-treatment 24 #3” value came to 0 and the “modulation upon carfilzomib-treatment 48 #1” value was determined as 0. Moreover, in the assay on MM.1S cells, the “modulation upon carfilzomib-treatment 48 #2” value worked out at 0 and the “modulation upon carfilzomib-treatment 48 #3” value is on record as 0.
Regarding IEHPSMSVY, in the assay on MM.1S cells, the “modulation upon carfilzomib-treatment 24 #1” value is given as 1, the “modulation upon carfilzomib-treatment 24 #2” value came out at 1, the “modulation upon carfilzomib-treatment 24 #3” value turned out to be 1 and the “modulation upon carfilzomib-treatment 48 #1” value worked out at 0. Further, in the assay on MM.1S cells, the “modulation upon carfilzomib-treatment 48 #2” value was 1 and the “modulation upon carfilzomib-treatment 48 #3” value came to 1.
EYGHIPSF: in the assay on MM.1S cells, the “modulation upon carfilzomib-treatment 24 #1” value was determined as 1, the “modulation upon carfilzomib-treatment 24 #2” value is listed as 1, the “modulation upon carfilzomib-treatment 24 #3” value is listed as 0 and the “modulation upon carfilzomib-treatment 48 #1” value stood at 0. Further, in the assay on MM.1S cells, the “modulation upon carfilzomib-treatment 48 #2” value was found to be 0 and the “modulation upon carfilzomib-treatment 48 #3” value was found to be 0.
As for LAFPGEMLL, in the assay with MM.1S cells, the “modulation upon carfilzomib-treatment 24 #1” value came to 0, the “modulation upon carfilzomib-treatment 24 #2” value amounted to 0, the “modulation upon carfilzomib-treatment 24 #3” value was found to be 0 and the “modulation upon carfilzomib-treatment 48 #1” value came out at 0. In the assay on MM.1S cells, the “modulation upon carfilzomib-treatment 48 #2” value came out at 0 and the “modulation upon carfilzomib-treatment 48 #3” value is recorded as 0.
Take TFLPFIHTI: in the assay with MM.1S cells, the “modulation upon carfilzomib-treatment 24 #1” value was 0, the “modulation upon carfilzomib-treatment 24 #2” value amounted to 0, the “modulation upon carfilzomib-treatment 24 #3” value is given as 0 and the “modulation upon carfilzomib-treatment 48 #1” value came out at 0. For the same compound, in the assay on MM.1S cells, the “modulation upon carfilzomib-treatment 48 #2” value was 0 and the “modulation upon carfilzomib-treatment 48 #3” value stood at 0.
In the case of AFIQAGIFQEF, in the assay with MM.1S cells, the “modulation upon carfilzomib-treatment 24 #1” value was −1, the “modulation upon carfilzomib-treatment 24 #2” value worked out at 0, the “modulation upon carfilzomib-treatment 24 #3” value is recorded as −1 and the “modulation upon carfilzomib-treatment 48 #1” value stood at 0. Moreover, in the assay on MM.1S cells, the “modulation upon carfilzomib-treatment 48 #2” value stood at 0 and the “modulation upon carfilzomib-treatment 48 #3” value was −1.
